# Reference: patent US20230279002A1, “Polymorphs of Crystalline Forms of 3,10-dimethoxy-5,8,13,13a-tetrahydro-6H-isoquinolino[3,2-a]isoquinolin-9-yl 3-fluorobenzenesulfonate and Salts Thereof” (CVI Pharmaceuticals Limited, priority 2020, published 2023)
# Entries after “also recorded” stand apart in the source; their conditions may differ.
# Tests used:
# Type in all cases: physicochemical
# [1] = Solid stability at 40° C./0% RH (closed) and 40° C./75% RH (open), HPLC; settings: for 0 day % remaining / 7 day % remaining / 21 day % remaining: solid
# Method in brief: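 Solid compound (5 mg) stored in the dark at 40 °C/0% RH in closed vials and at 40 °C/75% RH open. Samples analysed by HPLC at day 0, 5 and 10, or at days 0, 7 and 21, depending on the study.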
# [2] = TGA (Thermal Gravimetric Analysis) weight loss; settings: room temperature to 120° C.
# Experimental: TGA (Thermal Gravimetric Analysis): Samples of compounds (4˜6 mg) were weighed into the pan, and heated under nitrogen purge using a ramp rate of 20° C./min over the range of 30° C.˜350° C.
# [3] = Solution stability in 0.1 N HCl, pH 4.5 buffer and pH 6.8 buffer at 25° C. and 37° C., HPLC
# Experimental: Solution stability: A stock solution of compound (1.0 mg/mL) in MeOH was diluted with 0.1 N HCl, pH 4.5 buffer (acetate) and pH 6.8 buffer to reach constant ionic strength of 0.15 M and the same final concentration (50 μg/mL, 40% MeOH).
# A stock solution of 1b and 3b (1.0 mg/mL) in MeOH was diluted with pH 6.8 buffer to reach constant ionic strength of 0.15M and the same final concentration (25 μg/mL, 40% […]).
# The solutions were stored at 25° C. and 37° C.
# [4] = Solubility in SGF, FaSSIF, FeSSIF, 0.1M HCl, pH 4.5 and pH 6.8 aqueous at 25° C. (HPLC); settings: for Solubility conc.(mg/ml): solubility of salts transformed to freebase; for Final pH: solubility test
# Experimental: Solubility: Excess drug substance was equilibrated with SGF (Simulated Gastric Fluid), FaSSIF (Simulated Small Intestinal Fluid under Fasted state), FeSSIF (Simulated Small Intestinal Fluid under Fed state), 0.1M HCl, pH 4.5 aqueous, and pH 6.8 aqueous at 25° C. After stirring for 20˜24 h, each sample was filtered, diluted appropriately and analyzed by HPLC. The experiment was terminated once a solubility target of 5 mg/mL was reached.
# [5] = DVS (Dynamic Vapor Sorption) moisture sorption/desorption, hygroscopicity classification; settings: 25 °C; for Change In Mass (%) - ref, Desorption / Change In Mass (%) - ref, Sorption / Change In Mass (%) - ref, Hysteresis: Cycle 1
# Experimental: DVS (Dynamic Vapor Sorption): Around 10-20 mg of samples were used to test its moisture sorption/desorption profiles at 25° C. under 0%˜95%˜0% relative humidity (RH) cycle using dm/dt: 0.01%/min equilibrium and a measurement step of 5% RH.
# Hygroscopicity Classification: Typical %-moisture gain as a function of increased RH was determined by DVS. Samples went through a dynamic test isothermally at 25° C. The test was divided into 2 processes, one was absorption process, the other was desorption process. RH ranged from 0% to 95% with 5% RH for each step, and when dm/dt<=0.01%, it was assumed the water sorption/desorption equilibrium is reached.
substance,measurement,setting,value
"3,10-dimethoxy-5,8,13,13a-tetrahydro-6H-isoquinolino[3,2-a]isoquinolin-9-yl 3-fluorobenzenesulfonate [Compound 1b]",Solid-state stability (HPLC),"[1]; 40° C./0% RH (closed) and 40° C./75% RH (open), dark, up to 3 weeks",substantially stable
same,0 day % remaining,"[1]; 40° C. (0% RH, closed)",100.0%
same,7 day % remaining,"[1]; 40° C. (0% RH, closed)",99.3%
same,21 day % remaining,"[1]; 40° C. (0% RH, closed)",98.4%
same,0 day % remaining,[1]; 40° C./75% RH (open),100.0%
same,7 day % remaining,[1]; 40° C./75% RH (open),99.2%
same,21 day % remaining,[1]; 40° C./75% RH (open),102.0%
same,TGA weight loss (in words),[2],almost no weight loss
same,Remaining %,"[3]; 25° C., 0.1N HCL, 0 h, 50 μg/mL, 40% MeOH",100.00%
same,Remaining %,"[3]; 25° C., 0.1N HCL, 3 h, 50 μg/mL, 40% MeOH",100.53%
same,Remaining %,"[3]; 25° C., 0.1N HCL, 24 h, 50 μg/mL, 40% MeOH",100.88%
same,Solution stability,"[3]; 25° C., 24 h, 0.1N HCl, pH 4.5 buffer",stable
same,Solution stability,"[3]; 25° C., 24 h, pH 6.8 buffer",clear degradations
same,Remaining %,"[3]; 25° C., pH 4.5, 0 h, 50 μg/mL, 40% MeOH",100.00%
same,Remaining %,"[3]; 25° C., pH 4.5, 3 h, 50 μg/mL, 40% MeOH",99.94%
same,Remaining %,"[3]; 25° C., pH 4.5, 24 h, 50 μg/mL, 40% MeOH",98.79%
same,Remaining %,"[3]; 25° C., pH 6.8*, 0 h, final conc. 25 μg/mL with 40% DMSO",100.00%
same,Remaining %,"[3]; 25° C., pH 6.8*, 3 h, final conc. 25 μg/mL with 40% DMSO",99.18%
same,Remaining %,"[3]; 25° C., pH 6.8*, 24 h, final conc. 25 μg/mL with 40% DMSO",91.23%
same,Remaining %,"[3]; 37° C., 0.1N HCL, 0 h, 50 μg/mL, 40% MeOH",100.00%
same,Remaining %,"[3]; 37° C., 0.1N HCL, 3 h, 50 μg/mL, 40% MeOH",101.92%
same,Remaining %,"[3]; 37° C., 0.1N HCL, 24 h, 50 μg/mL, 40% MeOH",100.14%
same,Solution stability,"[3]; 37° C., 24 h, 0.1N HCl, pH 4.5 buffer",stable
same,Solution stability,"[3]; 37° C., 24 h, pH 6.8 buffer",decomposed
same,Remaining %,"[3]; 37° C., pH 4.5, 0 h, 50 μg/mL, 40% MeOH",100.00%
same,Remaining %,"[3]; 37° C., pH 4.5, 3 h, 50 μg/mL, 40% MeOH",99.51%
same,Remaining %,"[3]; 37° C., pH 4.5, 24 h, 50 μg/mL, 40% MeOH",98.83%
same,Remaining %,"[3]; 37° C., pH 6.8*, 0 h, final conc. 25 μg/mL with 40% DMSO",100.00%
same,Remaining %,"[3]; 37° C., pH 6.8*, 3 h, final conc. 25 μg/mL with 40% DMSO",98.97%
same,Remaining %,"[3]; 37° C., pH 6.8*, 24 h, final conc. 25 μg/mL with 40% DMSO",94.70%
same,Solubility conc.(mg/ml),[4]; 0.1N HCL,0.605 mg/mL
same,Solubility conc.(mg/ml),[4]; FaSSIF,0.007 mg/mL
same,Solubility conc.(mg/ml),[4]; FeSSIF,0.009 mg/mL
same,Solubility conc.(mg/ml),[4]; SGF,0.588 mg/mL
same,Solubility conc.(mg/ml),[4]; Water,0.008 mg/mL
same,Solubility conc.(mg/ml),[4]; pH 4.5 Acetate Buffer (USP),0.008 mg/mL
same,Solubility conc.(mg/ml),[4]; pH 6.8 Phosphate Buffer (USP),0.011 mg/mL
same,Final pH,[4]; 0.1N HCL,1.68
same,Final pH,[4]; FaSSIF,6.52
same,Final pH,[4]; FeSSIF,5.14
same,Final pH,[4]; SGF,1.67
same,Final pH,[4]; Water,5.42
same,Final pH,[4]; pH 4.5 Acetate Buffer (USP),4.59
same,Final pH,[4]; pH 6.8 Phosphate Buffer (USP),6.91
same,Hygroscopicity classification by DVS,[5],non-hygroscopic; also recorded: not hygroscopic
same,"Change In Mass (%) - ref, Desorption",[5]; Target RH 0.0 %,0.0000%
same,"Change In Mass (%) - ref, Sorption",[5]; Target RH 0.0 %,0.0000%
same,"Change In Mass (%) - ref, Desorption",[5]; Target RH 5.0 %,0.0094%
same,"Change In Mass (%) - ref, Hysteresis",[5]; Target RH 5.0 %,0.0031%
same,"Change In Mass (%) - ref, Sorption",[5]; Target RH 5.0 %,0.0063%
same,"Change In Mass (%) - ref, Desorption",[5]; Target RH 10.0 %,0.0157%
same,"Change In Mass (%) - ref, Hysteresis",[5]; Target RH 10.0 %,0.0052%
same,"Change In Mass (%) - ref, Sorption",[5]; Target RH 10.0 %,0.0104%
same,"Change In Mass (%) - ref, Desorption",[5]; Target RH 15.0 %,0.0198%
same,"Change In Mass (%) - ref, Hysteresis",[5]; Target RH 15.0 %,0.0063%
same,"Change In Mass (%) - ref, Sorption",[5]; Target RH 15.0 %,0.0136%
same,"Change In Mass (%) - ref, Desorption",[5]; Target RH 20.0 %,0.0251%
same,"Change In Mass (%) - ref, Hysteresis",[5]; Target RH 20.0 %,0.0073%
same,"Change In Mass (%) - ref, Sorption",[5]; Target RH 20.0 %,0.0178%
same,"Change In Mass (%) - ref, Desorption",[5]; Target RH 25.0 %,0.0292%
same,"Change In Mass (%) - ref, Hysteresis",[5]; Target RH 25.0 %,0.0084%
same,"Change In Mass (%) - ref, Sorption",[5]; Target RH 25.0 %,0.0209%
same,"Change In Mass (%) - ref, Desorption",[5]; Target RH 30.0 %,0.0334%
same,"Change In Mass (%) - ref, Hysteresis",[5]; Target RH 30.0 %,0.0104%
same,"Change In Mass (%) - ref, Sorption",[5]; Target RH 30.0 %,0.0230%
same,"Change In Mass (%) - ref, Desorption",[5]; Target RH 35.0 %,0.0386%
same,"Change In Mass (%) - ref, Hysteresis",[5]; Target RH 35.0 %,0.0125%
same,"Change In Mass (%) - ref, Sorption",[5]; Target RH 35.0 %,0.0261%
same,"Change In Mass (%) - ref, Desorption",[5]; Target RH 40.0 %,0.0449%
same,"Change In Mass (%) - ref, Hysteresis",[5]; Target RH 40.0 %,0.0094%
same,"Change In Mass (%) - ref, Sorption",[5]; Target RH 40.0 %,0.0355%
same,"Change In Mass (%) - ref, Desorption",[5]; Target RH 45.0 %,0.0501%
same,"Change In Mass (%) - ref, Hysteresis",[5]; Target RH 45.0 %,0.0104%
same,"Change In Mass (%) - ref, Sorption",[5]; Target RH 45.0 %,0.0397%
same,"Change In Mass (%) - ref, Desorption",[5]; Target RH 50.0 %,0.0543%
same,"Change In Mass (%) - ref, Hysteresis",[5]; Target RH 50.0 %,0.0115%
same,"Change In Mass (%) - ref, Sorption",[5]; Target RH 50.0 %,0.0428%
same,"Change In Mass (%) - ref, Desorption",[5]; Target RH 55.0 %,0.0606%
same,"Change In Mass (%) - ref, Hysteresis",[5]; Target RH 55.0 %,0.0146%
same,"Change In Mass (%) - ref, Sorption",[5]; Target RH 55.0 %,0.0460%
same,"Change In Mass (%) - ref, Desorption",[5]; Target RH 60.0 %,0.0658%
same,"Change In Mass (%) - ref, Hysteresis",[5]; Target RH 60.0 %,0.0178%
same,"Change In Mass (%) - ref, Sorption",[5]; Target RH 60.0 %,0.0480%
same,"Change In Mass (%) - ref, Desorption",[5]; Target RH 65.0 %,0.0689%
same,"Change In Mass (%) - ref, Hysteresis",[5]; Target RH 65.0 %,0.0178%
same,"Change In Mass (%) - ref, Sorption",[5]; Target RH 65.0 %,0.0512%
same,"Change In Mass (%) - ref, Desorption",[5]; Target RH 70.0 %,0.0731%
same,"Change In Mass (%) - ref, Hysteresis",[5]; Target RH 70.0 %,0.0157%
same,"Change In Mass (%) - ref, Sorption",[5]; Target RH 70.0 %,0.0574%
same,"Change In Mass (%) - ref, Desorption",[5]; Target RH 75.0 %,0.0794%
same,"Change In Mass (%) - ref, Hysteresis",[5]; Target RH 75.0 %,0.0146%
same,"Change In Mass (%) - ref, Sorption",[5]; Target RH 75.0 %,0.0648%
same,"Change In Mass (%) - ref, Desorption",[5]; Target RH 80.0 %,0.0857%
same,"Change In Mass (%) - ref, Hysteresis",[5]; Target RH 80.0 %,0.0136%
same,"Change In Mass (%) - ref, Sorption",[5]; Target RH 80.0 %,0.0721%
same,"Change In Mass (%) - ref, Desorption",[5]; Target RH 85.0 %,0.0940%
same,"Change In Mass (%) - ref, Hysteresis",[5]; Target RH 85.0 %,0.0136%
same,"Change In Mass (%) - ref, Sorption",[5]; Target RH 85.0 %,0.0804%
same,"Change In Mass (%) - ref, Desorption",[5]; Target RH 90.0 %,0.1065%
same,"Change In Mass (%) - ref, Hysteresis",[5]; Target RH 90.0 %,0.0115%
same,"Change In Mass (%) - ref, Sorption",[5]; Target RH 90.0 %,0.0951%
same,"Change In Mass (%) - ref, Desorption",[5]; Target RH 95.0 %,0.1159%
same,"Change In Mass (%) - ref, Sorption",[5]; Target RH 95.0 %,0.1159%
same,moisture picked up (DVS),[5]; at 95% RH,~0.2%
